Experimental data taken from BindingDB's records for doi:10.1002/cbic.201100007 (Yale University, 2011).

Molecular target: T1, dCTP pyrophosphatase 1 (Homo sapiens, UniProt Q9H773)
T1 sequence (Q9H773 whole entry): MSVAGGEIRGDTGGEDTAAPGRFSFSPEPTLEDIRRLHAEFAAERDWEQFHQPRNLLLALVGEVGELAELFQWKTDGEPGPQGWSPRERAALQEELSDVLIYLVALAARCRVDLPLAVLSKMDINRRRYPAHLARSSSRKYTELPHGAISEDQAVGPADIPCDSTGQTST
Test: Enzyme Assay
Conditions: pH 7.4; 25 °C
Protocol: Kinetic enzyme assays were performed in a 384-well, white plates (Nunc) on a Wallac Victor 2 plate reader using human DCTPP1 and triptolide and analogues.

Row | Structure (SMILES) | Ki [µM]
1 | CC(C)[C@]1(O)[C@H](O)[C@@H]2O[C@]23[C@]2(O[C@H]2CC2C4=C(CC[C@@]23C)C(=O)OC4)[C@@H]1O (some centres not stated) [Triptriolide, 5] | 85
2 | CC(C)[C@]12O[C@H]1[C@@H]1O[C@@]13[C@@]1(C)CCC4=C(COC4=O)[C@]1(O)C[C@@H]1O[C@@]13C2=O [5-Hydroxytriptonide, 6] | 356
